Data taken from article PMC10465233, “Lys-urea-Aad, Lys-urea-Cmc and Lys-urea-Cms as potential pharmacophores for the design of PSMA-targeted radioligands to reduce off-target uptake in kidneys and salivary glands” (Theranostics, 2023).

System: LNCaP tumor-bearing mice
Assay: Ex vivo biodistribution in LNCaP tumor-bearing mice
Design: species or system mouse
Experimental: Imaging, biodistribution and radioligand therapy experiments were performed following previously published procedures using male NOD-scid IL2Rg^null (NSG) or NOD.Cg-Rag1^tm1MomIl2rg^tm1Wjl/SzJ (NRG) mice [10]-[12],[14]-[15]. The experiments were conducted according to the guidelines established by the Canadian Council on Animal Care and approved by Animal Ethics Committee of the University of British Columbia. The mice were briefly sedated by inhalation of 2% isoflurane in oxygen, and implanted subcutaneously with 1×10^7 LNCaP cells behind the left shoulder. The mice were imaged or used in biodistribution studies when the tumor grew to 5-8 mm in diameter over a period of 4-5 weeks.
For biodistribution studies, the mice were injected with the radioligand (2-4 MBq) as described above. For blocking, the mice were co-injected with nonradioactive DCFPyL (0.5 mg). At predetermined time points, the mice were sedated by isoflurane inhalation and euthanized by CO2 inhalation. Blood was withdrawn by cardiac puncture, and organs/tissues of interest were collected, weighed and counted using an automatic gamma counter (Tables S4-S7).

COc1ccc(CCCC(=O)NCC(=O)N[C@@H](CCCCNC(=O)CN2CCN(CC(=O)[O-])CCN(CC(=O)[O-])CCN(CC(=O)[O-])CC2)C(=O)NC[C@H]2CC[C@H](C(=O)N[C@@H](Cc3c4ccccc4cc4ccccc34)C(=O)NCCCC[C@H](NC(=O)N[C@@H](CCCC(=O)O)C(=O)O)C(=O)O)CC2)cc1.[177Lu+3] [[^177Lu]Lu-HTK03170]
Bone uptake (24 h post-injection): 0.06 ± 0.04 %ID/g
Brain uptake (24 h post-injection): 0.02 ± 0.01 %ID/g
Fat uptake (24 h post-injection): 0.12 ± 0.04 %ID/g
Heart uptake (24 h post-injection): 0.26 ± 0.04 %ID/g
Intestines uptake (24 h post-injection): 0.18 ± 0.07 %ID/g
Kidneys uptake (24 h post-injection): 5.80 ± 1.24 %ID/g
Lacrimal glands uptake (24 h post-injection): 0.04 ± 0.03 %ID/g
Liver uptake (24 h post-injection): 0.69 ± 0.27 %ID/g
Lungs uptake (24 h post-injection): 0.72 ± 0.19 %ID/g
Muscle uptake (24 h post-injection): 0.08 ± 0.02 %ID/g
Pancreas uptake (24 h post-injection): 0.12 ± 0.03 %ID/g
Salivary glands uptake (24 h post-injection): 0.28 ± 0.04 %ID/g
Spleen uptake (24 h post-injection): 0.45 ± 0.10 %ID/g
Stomach uptake (24 h post-injection): 0.25 ± 0.13 %ID/g
Testes uptake (24 h post-injection): 0.64 ± 0.53 %ID/g
Thyroid uptake (24 h post-injection): 0.37 ± 0.06 %ID/g
Tumor uptake (24 h post-injection): 57.2 ± 15.3 %ID/g
Tumor:Blood uptake ratio (24 h post-injection): 105 ± 57.4
Tumor:Kidney uptake ratio (24 h post-injection): 10.5 ± 4.77
Tumor:Muscle uptake ratio (24 h post-injection): 736 ± 333
Tumor:Salivary gland uptake ratio (24 h post-injection): 202 ± 49.3
Adrenal glands uptake (72 h post-injection): 0.27 ± 0.11 %ID/g
Blood uptake (72 h post-injection): 0.06 ± 0.02 %ID/g
Blood:Salivary gland uptake ratio (72 h post-injection): 0.57 ± 0.17
Bone uptake (72 h post-injection): 0.03 ± 0.02 %ID/g
Brain uptake (72 h post-injection): 0.01 ± 0.00 %ID/g
Fat uptake (72 h post-injection): 0.04 ± 0.02 %ID/g
Heart uptake (72 h post-injection): 0.09 ± 0.03 %ID/g
Intestines uptake (72 h post-injection): 0.14 ± 0.11 %ID/g
Kidneys uptake (72 h post-injection): 2.56 ± 0.62 %ID/g
Lacrimal glands uptake (72 h post-injection): 0.01 ± 0.01 %ID/g
Liver uptake (72 h post-injection): 0.36 ± 0.13 %ID/g
Lungs uptake (72 h post-injection): 0.18 ± 0.04 %ID/g
Muscle uptake (72 h post-injection): 0.02 ± 0.01 %ID/g
Pancreas uptake (72 h post-injection): 0.04 ± 0.01 %ID/g
Salivary glands uptake (72 h post-injection): 0.11 ± 0.03 %ID/g
Spleen uptake (72 h post-injection): 0.38 ± 0.15 %ID/g
Stomach uptake (72 h post-injection): 0.28 ± 0.33 %ID/g
Testes uptake (72 h post-injection): 0.24 ± 0.04 %ID/g
Thyroid uptake (72 h post-injection): 0.15 ± 0.01 %ID/g
Tumor uptake (72 h post-injection): 59.3 ± 16.0 %ID/g
Tumor:Blood uptake ratio (72 h post-injection): 1029 ± 459
Tumor:Kidney uptake ratio (72 h post-injection): 24.0 ± 6.93
Tumor:Muscle uptake ratio (72 h post-injection): 3374 ± 1417
Tumor:Salivary gland uptake ratio (72 h post-injection): 566 ± 236
Adrenal glands uptake (120 h post-injection): 0.23 ± 0.18 %ID/g
Blood uptake (120 h post-injection): 0.02 ± 0.01 %ID/g
Blood:Salivary gland uptake ratio (120 h post-injection): 0.31 ± 0.06
Bone uptake (120 h post-injection): 0.02 ± 0.01 %ID/g
Fat uptake (120 h post-injection): 0.04 ± 0.03 %ID/g
Heart uptake (120 h post-injection): 0.05 ± 0.02 %ID/g
Intestines uptake (120 h post-injection): 0.05 ± 0.06 %ID/g
Kidneys uptake (120 h post-injection): 1.48 ± 0.44 %ID/g
Liver uptake (120 h post-injection): 0.26 ± 0.11 %ID/g
Lungs uptake (120 h post-injection): 0.07 ± 0.02 %ID/g
Muscle uptake (120 h post-injection): 0.01 ± 0.01 %ID/g
Pancreas uptake (120 h post-injection): 0.02 ± 0.02 %ID/g
Salivary glands uptake (120 h post-injection): 0.05 ± 0.03 %ID/g
Spleen uptake (120 h post-injection): 0.53 ± 0.35 %ID/g
Stomach uptake (120 h post-injection): 0.08 ± 0.15 %ID/g
Testes uptake (120 h post-injection): 0.16 ± 0.04 %ID/g
Thyroid uptake (120 h post-injection): 0.09 ± 0.04 %ID/g
Tumor uptake (120 h post-injection): 71.9 ± 19.4 %ID/g
Tumor:Blood uptake ratio (120 h post-injection): 3996 ± 2182
Tumor:Kidney uptake ratio (120 h post-injection): 46.4 ± 21.3
Tumor:Muscle uptake ratio (120 h post-injection): 12778 ± 19955
Tumor:Salivary gland uptake ratio (120 h post-injection): 1167 ± 531
Peaked tumor uptake relative to ^68Ga-labeled non-albumin-binder analog (mouse, in vivo): ~ 3 fold
Peaked average tumor uptake (peak over 1-120 h post-injection): ~ 60 %ID/g
Time of peak tumor uptake (post-injection, listed as 177Lu-labeled HTK03170): 4 to 24 h
